Holding throughout (test): thermal shift titration (SYPRO Orange), Hill fit
What all share (assay type): binding
Holding throughout (conditions): read-out: Apparent KD

Assay [1] has as its target T1, eYfnI (YfnI) (Bacillus subtilis, UniProt Q797B3, T297A).
T1 construct: gene ltaS1; extracellular catalytic domain (borders not given), N-terminal 6His tag removed by AcTEV; E. coli Rosetta; pProEX-eYfnI
The text has this:
(§1) thermal shift titration (SYPRO Orange), Hill fit on eYfnI (YfnI)

Assay [2] deals with T2, eYfnI (YfnI) (Bacillus subtilis, UniProt Q797B3, T297D).
T2 construct: gene ltaS1; extracellular catalytic domain (borders not given), N-terminal 6His tag removed by AcTEV; E. coli Rosetta; pProEX-eYfnI
Text: as §1

In assay [3] the target is T3, eYfnI (YfnI) (Bacillus subtilis, UniProt Q797B3).
T3 construct: gene ltaS1; extracellular catalytic domain (borders not given), N-terminal 6His tag removed by AcTEV; E. coli Rosetta; pProEX-eYfnI
Text: as §1

T3 sequence (Q797B3 215-639): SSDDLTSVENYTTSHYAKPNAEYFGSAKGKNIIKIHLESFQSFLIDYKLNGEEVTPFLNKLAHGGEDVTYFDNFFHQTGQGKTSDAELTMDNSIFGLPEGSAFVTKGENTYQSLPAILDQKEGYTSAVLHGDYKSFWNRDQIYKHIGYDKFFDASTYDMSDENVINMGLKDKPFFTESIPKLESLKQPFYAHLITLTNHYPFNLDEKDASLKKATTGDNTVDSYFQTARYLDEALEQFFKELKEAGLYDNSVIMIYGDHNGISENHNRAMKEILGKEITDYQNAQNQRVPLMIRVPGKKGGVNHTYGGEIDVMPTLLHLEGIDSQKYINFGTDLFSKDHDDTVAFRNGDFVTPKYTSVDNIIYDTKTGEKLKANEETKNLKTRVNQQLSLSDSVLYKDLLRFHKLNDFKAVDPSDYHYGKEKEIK
T2 sequence (Q797B3 215-639 T297D): as the sequence (Q797B3 215-639) above, with T83D counted along it
T1 sequence (Q797B3 215-639 T297A): as the sequence (Q797B3 215-639) above, with T83A counted along it

On to `O=P(O)(O)OCC(O)CO` (stereo not drawn) [GroP], for which the Kd was determined as 8 mM in assay [1], 5.4 mM in assay [2] and 2.9 mM in assay [3].

Values taken from PMC6255753, “Investigation of the phosphorylation of Bacillus subtilis LTA synthases by the serine/threonine kinase PrkC” (Scientific Reports, 2018).
